Test results published in patent US5770573A, “CS-1 peptidomimetics, compositions and methods of using the same” (Cytel Corporation, priority 1995, dated 1998).
Like-named read-outs stand apart in the source and are kept apart here. Square brackets hold non-standard residues; d marks the D form. Peptide text beside a SMILES is read from it. * marks the point of attachment. Biotin = O=C1N[C@H]2[C@H](CS[C@H]2CCCCC(=O)*)N1; Acetyl(3-pyridyl) = O=C(Cc1cccnc1)*; Cya = N[C@@H](CS(=O)(=O)O)C(=O)O; Isonicotinoyl = O=C(c1ccncc1)*; Morpholide = C1CN(*)CCO1; Piperidide = C1CCN(*)CC1; Pyrrolidide = C1CCN(*)C1; PhAc = O=C(Cc1ccccc1)*; NHBn = c1ccc(CN*)cc1; Ahx = NCCCCCC(=O)O

Molecular target: VLA-4 (Homo sapiens, UniProt P05556+P13612)
Experiment: In vitro binding inhibition of 51Cr-labeled Jurkat cells to solid phase-bound CS-1 compound (SEQ ID NO:1)
Assay type: cell-based
Set-up: inflammatory cells that contain the VLA-4 receptor [Jurkat cells; host or cells: Jurkat (human T lymphoblastic line)
Procedure: Binding inhibition is measured here as a concentration of compound that inhibits one-half the binding between a standard number of Jurkat cells and a standard amount of CS-1 compound bound to the surface of a microtiter plate well. Those concentrations are conveniently expressed as IC50 values, smaller numbers indicating a lower concentration required to inhibit 50 percent binding and therefore greater potency. Further specifics of this assay are provided hereinafter.
Jurkat cells (ATCC TIB 152), a human T lymphoblastic line, labeled with ^51 chromium were used to assay in vitro binding inhibition provided by various compounds discussed herein.
The plates were prepared as follows: The 25-mer CS-1 compound (SEQ ID NO:1) dissolved at 0.5-1 μg/ml in a buffer of 0.1M NaHCO3 at pH 9.5 that also contained 10 μg/ml of bovine serum albumin (BSA) or a conjugate of the CS-1 compound linked to […] (CS-1-OVA) dissolved at 1-2.5 μg/ml in the same buffer was used as the substrate. Each well of the microtiter plates was coated with 50 μl of substrate or buffer alone for controls. The wells were permitted to dry out completely and were then rinsed twice with PBS at pH 7.4. Non-specific binding sites of each well were then blocked using 200 μl per well of RPMI/1 percent BSA for two hours at room temperature.
Jurkat cells (3-5×10^6 cells) were placed into a 15 ml Falcon™ round-bottom tube with a cap. The tube was centrifuged, and the extra medium was then removed.
Two hundred microliters of a ^51 Cr labeling solution were added to the centrifuged cells and maintained in contact with the cells for 90-120 minutes in a warm room. […] Longer contact times provide a greater amount of labeling but lower cell viability.
The labeled cells are washed with (i) complete medium, (ii) 1 mM EDTA/PBS and then (iii) RPM1/1 percent BSA free of serum components. The cells are centrifuged after each washing. The cells are finally resuspended in serum-free RPMI/1 percent BSA at a concentration of 1×10^6 viable cells/ml, which provides a concentration that is diluted by one-half in the assay.
Inhibitor compounds are prepared as stock solutions at 20 mg/ml in DMSO in 1.5 ml cryogenic screwcap vials, and were stored at -70° C. Using Flow™ round-bottom or V-bottom microtiter plates, the inhibitor compounds were prepared at twice the assay concentration in RPMI/1 percent BSA at 60 μl/well.
Four initial dilutions were typically used.
The ^51 Cr-labeled cells ([…] at 60 μl/well) were then admixed with the diluted compound solutions. The admixtures were maintained at room temperature (about 22° C.) for 30 minutes.
One hundred microliters of each inhibitor compound/cell admixture were transferred to the substrate-coated wells. This was done in triplicate for each dilution. The resulting plates were incubated for 30 minutes at 37° C. and then washed gently three times with RPMI/1 percent BSA at 200 μl/well. Binding was observed microscopically, particularly after the second wash.
The bound cells were then lysed by the addition of a 0.5 percent solution of sodium dodecylsulfate in water at 100 μl/well. The resulting solutions were then processed for counting and calculation of IC50 values following usual procedures.
The data of Table 1 are normalized to the binding of SEQ ID NO: 3. […] Multiple assays for the same compound were averaged.

[1] = binding inhibition potency relative to standard compound of SEQ ID NO:3 = 1 (normalized IC50), about one-tenth or less assigned zero

Sequence of VLA-4 (P13612 34-1032): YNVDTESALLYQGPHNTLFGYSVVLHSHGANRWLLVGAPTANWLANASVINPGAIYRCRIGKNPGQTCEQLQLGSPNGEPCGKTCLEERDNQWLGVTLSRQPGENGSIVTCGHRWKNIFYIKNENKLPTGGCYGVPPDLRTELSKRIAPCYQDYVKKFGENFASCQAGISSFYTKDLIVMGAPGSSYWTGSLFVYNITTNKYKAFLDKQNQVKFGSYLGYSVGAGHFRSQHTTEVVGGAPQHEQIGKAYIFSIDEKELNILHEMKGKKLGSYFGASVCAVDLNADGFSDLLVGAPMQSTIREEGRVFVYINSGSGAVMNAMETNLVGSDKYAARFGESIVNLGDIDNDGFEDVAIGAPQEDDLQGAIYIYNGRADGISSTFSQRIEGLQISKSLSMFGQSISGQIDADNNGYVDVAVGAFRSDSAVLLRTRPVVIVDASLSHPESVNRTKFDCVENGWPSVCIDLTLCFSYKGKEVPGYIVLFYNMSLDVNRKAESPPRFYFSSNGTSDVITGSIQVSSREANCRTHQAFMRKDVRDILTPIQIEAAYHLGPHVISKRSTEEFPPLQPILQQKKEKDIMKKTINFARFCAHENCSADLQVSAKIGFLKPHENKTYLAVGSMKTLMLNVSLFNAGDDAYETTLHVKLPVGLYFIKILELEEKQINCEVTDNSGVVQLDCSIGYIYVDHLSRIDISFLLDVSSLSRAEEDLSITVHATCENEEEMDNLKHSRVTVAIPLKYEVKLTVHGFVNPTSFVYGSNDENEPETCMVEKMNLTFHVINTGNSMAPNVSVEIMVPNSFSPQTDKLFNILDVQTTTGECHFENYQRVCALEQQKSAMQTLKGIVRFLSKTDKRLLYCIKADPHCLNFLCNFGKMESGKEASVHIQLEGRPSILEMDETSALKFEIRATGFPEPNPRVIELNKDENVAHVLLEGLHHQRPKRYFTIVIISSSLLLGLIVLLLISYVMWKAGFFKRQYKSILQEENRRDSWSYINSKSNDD
Sequence of VLA-4 (P05556 21-798): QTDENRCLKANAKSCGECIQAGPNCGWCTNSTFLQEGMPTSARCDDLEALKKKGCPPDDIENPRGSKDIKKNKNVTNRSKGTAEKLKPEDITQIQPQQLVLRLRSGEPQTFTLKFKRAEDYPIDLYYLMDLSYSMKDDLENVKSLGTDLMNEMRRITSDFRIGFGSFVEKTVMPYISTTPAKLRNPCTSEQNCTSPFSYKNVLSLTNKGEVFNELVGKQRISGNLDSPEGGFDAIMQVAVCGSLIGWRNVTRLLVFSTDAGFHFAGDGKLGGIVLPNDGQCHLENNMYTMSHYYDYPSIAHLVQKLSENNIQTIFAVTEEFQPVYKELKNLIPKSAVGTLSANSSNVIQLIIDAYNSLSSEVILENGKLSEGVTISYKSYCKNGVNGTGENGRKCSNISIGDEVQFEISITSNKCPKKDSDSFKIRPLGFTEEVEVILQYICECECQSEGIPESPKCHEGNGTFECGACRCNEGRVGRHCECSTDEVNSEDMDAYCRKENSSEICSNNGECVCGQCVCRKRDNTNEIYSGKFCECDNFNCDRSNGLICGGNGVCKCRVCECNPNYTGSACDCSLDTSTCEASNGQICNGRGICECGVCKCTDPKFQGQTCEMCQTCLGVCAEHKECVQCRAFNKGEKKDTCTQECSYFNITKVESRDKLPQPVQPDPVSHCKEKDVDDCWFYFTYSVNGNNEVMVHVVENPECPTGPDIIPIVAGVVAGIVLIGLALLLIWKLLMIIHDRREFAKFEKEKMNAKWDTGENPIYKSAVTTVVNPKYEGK

SMILES	Relative Potency	Relative Potency [1]	also measured
CC(C)C[C@H](NC(=O)[C@@H]1CCCN1)C(=O)N[C@@H](CC(=O)O)C(=O)N[C@@H](Cc1ccccc1)C(=O)N1CCC[C@@H]1C(N)=O [951.12] (H-PLDF[dP]-NH2)	61.8		
CC(C)C[C@H](NC(=O)[C@H](Cc1ccccc1)NC(=O)CCCCCNC(=O)CCCC[C@@H]1SC[C@@H]2NC(=O)N[C@@H]21)C(=O)N[C@@H](CC(=O)O)C(=O)N[C@@H](Cc1ccccc1)C(=O)N1CCC[C@@H]1C(N)=O [951.13] ({Biotin-Ahx}-FLDF[dP]-NH2)			Relative Potency (prodrug compound): 74.5
CC(C)C[C@H](NC(=O)Cc1ccccc1)C(=O)N[C@@H](CC(=O)O)C(=O)N[C@@H](Cc1ccccc1)C(=O)N1CCCCC1 [951.14] (PhAc-Leu-Asp-Phe-Piperidide)		239	
CC(C)C[C@H](NC(=O)Cc1ccccc1)C(=O)N[C@@H](CC(=O)O)C(=O)N[C@@H](Cc1ccccc1)C(=O)N1CCCC1 [951.15] (PhAc-Leu-Asp-Phe-Pyrrolidide)		121	
CC(C)C[C@H](NC(=O)Cc1ccccc1)C(=O)N[C@@H](CC(=O)O)C(=O)N[C@@H](Cc1ccccc1)C(=O)N1CCC[C@H]1CO [951.17]		163	
CC(C)C[C@H](NC(=O)c1ccncc1)C(=O)N[C@@H](CC(=O)O)C(=O)N[C@@H](Cc1ccccc1)C(=O)N1CCC[C@@H]1C(N)=O [951.20] (Isonicotinoyl-LDF[dP]-NH2)	228		
CC(C)C[C@H](NC(=O)Cc1cccnc1)C(=O)N[C@@H](CC(=O)O)C(=O)N[C@@H](Cc1ccccc1)C(=O)N1CCC[C@@H]1C(N)=O [951.22] ({Acetyl(3-pyridyl)}-LDF[dP]-NH2)	387		
CC(=O)N[C@@H](Cc1ccccc1)C(=O)N[C@@H](CC(C)C)C(=O)N[C@@H](CC(=O)O)C(=O)N[C@@H](Cc1ccccc1)C(=O)N1CCC[C@@H]1C(N)=O [951.42] (Ac-FLDF[dP]-NH2)	35.4		
CC(=O)N[C@@H](CO)C(=O)N[C@@H](Cc1ccccc1)C(=O)N[C@@H](CC(=O)O)C(=O)N[C@@H](Cc1ccccc1)C(=O)N[C@@H](CO)C(N)=O [951.46] (Ac-SFDFS-NH2)	.22		
O=C(O)C[C@H](NC1CCN(C(=O)Cc2ccccc2)CC1)C(=O)N[C@@H](Cc1ccccc1)C(=O)N1CCCC1 [992.01]		0	
CC(C)C[C@H](NC(=O)Cc1ccccc1)C(=O)N[C@@H](CC(=O)O)C(=O)NC(c1ccccc1)c1ccccc1 [997.01]		2.66	
CC(C)C[C@H](NC(=O)Cc1ccccc1)C(=O)N[C@@H](CC(=O)O)C(=O)NCc1ccccc1 [997.02] (PhAc-Leu-Asp-NHBn)		18.8	
CC(C)C[C@H](NC(=O)Cc1ccccc1)C(=O)N[C@@H](CC(=O)O)C(=O)NCCN1CCOCC1 [997.03]		12.5	
CC(C)C[C@H](NC(=O)Cc1ccccc1)C(=O)N[C@@H](CC(=O)O)C(=O)NC1Cc2ccccc2NC1=O (stereo partly shown) [997.08]		23.5	
CC(C)C[C@H](NC(=O)Cc1ccccc1)C(=O)N[C@@H](CC(=O)O)C(=O)N1CCc2ccccc2C1 [997.09]		3.13	
CC(C)C[C@H](NC(=O)Cc1ccccc1)C(=O)N[C@@H](CC(=O)O)C(=O)NC1Cc2ccccc2N(CC(C)C)C1=O (stereo partly shown) [997.10]		6.26	
CC(C)C[C@H](NC(=O)Cc1ccccc1)C(=O)N[C@@H](CC(=O)O)C(=O)NC1Cc2ccccc2N(CC(N)=O)C1=O (stereo partly shown) [997.11]		44.8	
CC(C)C[C@H](NC(=O)Cc1ccccc1)C(=O)N[C@@H](CC(=O)O)C(=O)N[C@@H](Cc1ccccc1)C(N)=O [997.12] (PhAc-Leu-Asp-Phe-NH2)		.45	
CC(C)C[C@H](NC(=O)Cc1ccccc1)C(=O)N[C@@H](CC(=O)O)C(=O)NNC(=O)OC(C)(C)C [997.13]		1.57	
CC(C)C[C@H](NC(=O)Cc1ccccc1)C(=O)N[C@@H](CC(=O)O)C(=O)NN(Cc1ccccc1)C(=O)C1CCCC1 [997.15]		1.28	
CC(C)C[C@H](NC(=O)Cc1ccccc1)C(=O)N[C@@H](CC(=O)O)C(=O)NCC(=O)N1CCOCC1 [997.16] (PhAc-Leu-Asp-Gly-Morpholide)		9.23	
CC(C)C[C@H](NC(=O)Cc1ccccc1)C(=O)N[C@@H](CC(=O)O)C(=O)NN1Cc2ccccc2NC1=O [997.17]		1.35	

SMILES	Relative Potency	Relative Potency [1]	also measured
CC(C)C[C@H](NC(=O)Cc1ccccc1)C(=O)N[C@@H](CC(=O)O)C(=O)NC1Cc2ccccc2N(CCN2CCOCC2)C1=O (stereo partly shown) [997.18]		20	
CC(C)C[C@H](NC(=O)Cc1ccccc1)C(=O)N[C@@H](CC(=O)O)C(=O)N[C@@H](CC(C)C)C(=O)N1CCOCC1 [997.20] (PhAc-Leu-Asp-Leu-Morpholide)		291	
CC(C)CN1C(=O)C(NC(=O)N[C@@H](CC(=O)O)C(=O)N[C@@H](Cc2ccccc2)C(=O)N2CCC[C@@H]2C(N)=O)Cc2ccccc21 (stereo partly shown) [1014.01]	1.22		
CC(C)C[C@H](NC(=O)Cc1ccc(O)c(O)c1)C(=O)N[C@@H](CC(=O)O)C(=O)N[C@@H](Cc1ccccc1)C(=O)N1CCCCC1 [1019.01]	81.4		
CC(C)C[C@H](NC(=O)Cc1ccccc1)C(=O)NC(CC(=O)O)(CC(=O)O)C(=O)N[C@@H](Cc1ccccc1)C(=O)N1CCCCC1 [1026.01]		0	
CC(C)C[C@H](NC(=O)Cc1ccccc1)C(=O)NC(C(=O)O)C(=O)N[C@@H](Cc1ccccc1)C(=O)N1CCCCC1 (stereo partly shown) [1026.02]		0	
CC(C)C[C@H](NC(=O)Cc1ccccc1)C(=O)NC(C(=O)N[C@@H](Cc1ccccc1)C(=O)N1CCCCC1)C(C(=O)O)C(=O)O (stereo partly shown) [1026.04]		2.32	
CC(C)C[C@H](NC(=O)Cc1ccccc1)C(=O)N[C@@H](CC(=O)O)C(=O)N[C@H]1Cc2ccccc2[C@H]2CCCCN2C1=O [1026.05]		50.1	
CC(C)C[C@H](NC(=O)Cc1ccccc1)C(=O)N[C@@H](CS(=O)(=O)O)C(=O)N[C@@H](Cc1ccccc1)C(=O)N1CCCCC1 [1026.06] (PhAc-Leu-[Cya]-Phe-Piperidide)		0	
CC(C)C[C@H](NC(=O)Cc1ccccc1)C(=O)N[C@@H](CP(=O)(O)O)C(=O)N[C@@H](Cc1ccccc1)C(=O)N1CCCCC1 [1026.07]		0	
CC(C)C[C@H](NC(=O)Cc1ccccc1)C(=O)N[C@@H](CS(N)(=O)=O)C(=O)N[C@@H](Cc1ccccc1)C(=O)N1CCCCC1 [1026.08]		0	
CC(C)CN(CC(C)C)C(=O)N[C@@H](CC(=O)O)C(=O)N[C@H](C(=O)N1CCCCC1)c1ccccc1 [1027.01]	.5		
CC(C)CN(CCCc1ccccc1)C(=O)N[C@@H](CC(=O)O)C(=O)N[C@@H](Cc1ccccc1)C(=O)N1CCCCC1 [1027.02]	0		
O=C(O)C[C@H](NC(=O)N(Cc1ccccc1)Cc1ccccc1)C(=O)N[C@@H](Cc1ccccc1)C(=O)N1CCCCC1 [1027.03]	0		
CC(C)COC(=O)N[C@@H](CC(=O)O)C(=O)N[C@@H](Cc1ccccc1)C(=O)N1CCCCC1 [1027.04]	0		
CC(C)CN(CC(=O)Nc1ccccc1)C(=O)CN(CC(=O)O)C(=O)CNC(=O)C1CCCC1 [1032.01]	.42		
CC(C)CN(CC(=O)Nc1ccccc1)C(=O)CN(CC(=O)O)C(=O)CN(Cc1ccccc1)C(=O)C1CCCC1 [1032.02]		.63	
CC(C)C[C@H](NCc1ccccc1)C(=O)N[C@@H](CC(=O)O)C(=O)N[C@@H](Cc1ccccc1)C(=O)N1CCCCC1 [1033.01]	5.84		
CC(C)CC(C(=O)NCc1ccccc1)C(=O)N[C@@H](CC(=O)O)C(=O)N[C@@H](Cc1ccccc1)C(=O)N1CCC[C@@H]1C(N)=O (stereo partly shown) [1034.01]	1.96		
CC(C)CC(C(=O)NCc1ccccc1)C(=O)N[C@@H](CC(=O)O)C(=O)N[C@@H](Cc1ccccc1)C(=O)N1CCCCC1 (stereo partly shown) [1034.02]	0		
CC(C)C[C@H](NC(=O)Cc1ccccc1)C(=O)N[C@@H](CC(=O)O)C(=O)N[C@@H](Cc1ccc(O)cc1)C(=O)N1CCC[C@H]1C(N)=O [1036.01] (PhAc-LDYP-NH2)		405	
